1 molecule from patent US7816400B2 (The University of Hong Kong, priority 2007, dated 2010) can be followed below.

In one series the test system is human atrial myocytes. The series can be described thus: Action potential in human atrial myocytes, perforated patch, current clamp. It counts as cell-based.
Series [1] in a line: Water solubility (statement). Particulars: for injection application. It counts as physicochemical.
For the next series, the target named is T1, IKur (Homo sapiens, UniProt P22460).
T1 construct: endogenous in cells; host or cells: human right atrial myocytes, freshly isolated
The series can be described thus: IKur in human atrial myocytes, whole-cell patch clamp. Particulars: for inhibition of voltage-dependent IKur (tail and step currents), in words: 3, 10 and 30 μM. It counts as cell-based. (In patch-clamp work, channel activity is measured electrically.)

In a further series the target is T2, Ito (Homo sapiens, UniProt Q9UK17).
T2 sequence (Q9UK17 1-655): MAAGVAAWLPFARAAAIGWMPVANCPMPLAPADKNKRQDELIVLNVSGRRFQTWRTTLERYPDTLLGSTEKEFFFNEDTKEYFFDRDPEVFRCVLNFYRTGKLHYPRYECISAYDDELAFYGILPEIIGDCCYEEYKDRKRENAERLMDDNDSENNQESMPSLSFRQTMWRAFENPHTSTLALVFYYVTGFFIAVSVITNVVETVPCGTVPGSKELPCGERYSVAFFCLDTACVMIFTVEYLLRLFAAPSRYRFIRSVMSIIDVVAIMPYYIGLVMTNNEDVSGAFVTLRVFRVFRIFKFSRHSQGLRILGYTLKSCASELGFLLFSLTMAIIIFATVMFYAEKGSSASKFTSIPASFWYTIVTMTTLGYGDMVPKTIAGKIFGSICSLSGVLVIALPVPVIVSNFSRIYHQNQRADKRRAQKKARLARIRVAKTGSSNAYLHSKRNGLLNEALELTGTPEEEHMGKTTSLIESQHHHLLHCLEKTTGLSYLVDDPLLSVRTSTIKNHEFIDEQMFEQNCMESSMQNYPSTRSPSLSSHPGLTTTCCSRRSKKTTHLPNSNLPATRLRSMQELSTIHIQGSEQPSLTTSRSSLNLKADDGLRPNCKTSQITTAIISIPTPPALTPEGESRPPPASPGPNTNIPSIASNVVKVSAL
T2 sequence (Q9NS61 1-270 partner): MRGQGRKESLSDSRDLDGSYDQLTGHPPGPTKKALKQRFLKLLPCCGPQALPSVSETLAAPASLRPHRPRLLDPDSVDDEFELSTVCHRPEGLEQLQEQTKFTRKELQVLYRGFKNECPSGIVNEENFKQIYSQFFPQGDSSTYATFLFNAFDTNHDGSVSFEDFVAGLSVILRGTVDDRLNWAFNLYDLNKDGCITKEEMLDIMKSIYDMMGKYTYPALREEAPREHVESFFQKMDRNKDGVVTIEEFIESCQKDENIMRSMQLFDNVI
The series can be described thus: Ito in human atrial myocytes, whole-cell patch clamp. It is filed as cell-based. The settings on record: for voltage-dependence of steady-state inactivation and activation of Ito, in words: 10 μM.

A further series has as its system INa. The series can be described thus: INa in guinea pig ventricular myocytes. It counts as cell-based. The settings on record: 30 and 100 μM. The method, then: Guinea pigs of either gender (250-300 g) were sacrificed by cervical dislocation after anesthetization with pentobarbital (40 mg kg, i.p.). The procedure related to the use of animals in this invention was approved by the Animal Care and Use Committee for Teaching and Research of University of Hong Kong in accordance with the Guide for the Care and Use of Laboratory Animals (Institute of Laboratory Animal Resources, Commission on Life Sciences, National Research Council, 1996). Left atrial and ventricular myocytes from guinea pig hearts were enzymatically dissociated by the procedure described previously (Li et al., 2002a) and the isolated myocytes were kept in the K^+ storage medium.
The Ca^2+-free cardioplegic solution for specimen transport contained (in mM) 50 KH2PO4, 8 MgSO4, 5 adenosine, 10 HEPES, 140 glucose, 100 mannitol, 10 taurine, pH was adjusted to 7.3 with KOH. Tyrode solution contained (in mM) 140 NaCl, 5.4 KCl, 1 MgCl2, 1 CaCl2, 0.33 NaH2PO4, 10 HEPES, 10 glucose, pH was adjusted to 7.4 with NaOH. […] INa was recorded under conditions of K^+-free and a symmetrical Na^+ (5 mM) in pipette and superfusion solutions as described previously (Li at al., 2002a).
The whole-cell patch-clamp technique was used for electrophysiological recording. […] Membrane currents were recorded in voltage-clamp mode using an EPC-9 amplifier and Pulse software (HEKA, Lambrecht, Germany). […]

Where [2] appears, read: extract fraction / isolated compound, concentration not given.

“Also recorded” adds a separate entry of the source.

T1 sequence (P22460 whole entry): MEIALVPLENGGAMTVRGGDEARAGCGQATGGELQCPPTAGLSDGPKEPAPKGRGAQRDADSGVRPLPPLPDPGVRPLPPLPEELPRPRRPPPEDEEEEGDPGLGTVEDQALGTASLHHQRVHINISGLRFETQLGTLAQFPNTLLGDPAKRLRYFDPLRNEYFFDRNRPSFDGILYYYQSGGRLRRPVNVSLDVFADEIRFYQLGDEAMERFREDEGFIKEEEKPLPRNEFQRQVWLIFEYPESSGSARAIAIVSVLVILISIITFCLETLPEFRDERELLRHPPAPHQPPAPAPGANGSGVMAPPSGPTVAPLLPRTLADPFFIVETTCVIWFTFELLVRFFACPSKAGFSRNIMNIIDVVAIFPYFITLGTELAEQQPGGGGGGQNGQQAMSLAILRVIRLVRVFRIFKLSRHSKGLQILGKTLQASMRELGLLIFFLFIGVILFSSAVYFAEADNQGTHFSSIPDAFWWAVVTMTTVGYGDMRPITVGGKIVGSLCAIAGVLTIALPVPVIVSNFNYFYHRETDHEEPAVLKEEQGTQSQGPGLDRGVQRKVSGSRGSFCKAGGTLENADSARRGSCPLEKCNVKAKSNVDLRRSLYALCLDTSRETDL
Description for IKur: (§1) Atrial cells were isolated from specimens of human right atrial appendage obtained from patients (56.1±4.7 years old) undergoing coronary artery bypass grafting. […] After excision, the samples were quickly immersed in oxygenated, normally Ca^2+-free cardioplegic solution for transport to the laboratory. […] Briefly, the atrial tissue was minced, and gently agitated by continuous bubbling with 100% O2 in a Ca^2+-free Tyrode solution for 15 min (5 min at a time in fresh solutions), and then incubated for 50 min in a similar solution containing 150-200 U/ml collagenase (CLS II, Worthington Biochemical, Freehold, N.J., USA), 0.2 mg/ml protease (type XXIV, Sigma-Aldrich Chemical, St Louis, Mo., USA.) and 1 mg/ml bovine serum albumin (Sigma-Aldrich). After then, the chunks were re-incubated in a fresh enzyme solution of the same composition but no protease. The quantity and quality of isolated cells were monitored under a microscope. When the cell yield appeared optimal, the chunks were suspended in a high K medium containing (mM) 10 KCl, 120 K-glutamate, 10 KH2PO4, 1.8 MgSO4, 10 taurine, 10 HEPES, 0.5 EGTA, 20 glucose, 10 mannitol, pH was adjusted to 7.3 with KOH and gently blown with a pipette. The isolated myocytes were kept at room temperature in the medium at least 1 h before use.
(§2) The Ca^2+-free cardioplegic solution for specimen transport contained (in mM) 50 KH2PO4, 8 MgSO4, 5 adenosine, 10 HEPES, 140 glucose, 100 mannitol, 10 taurine, pH was adjusted to 7.3 with KOH. Tyrode solution contained (in mM) 140 NaCl, 5.4 KCl, 1 MgCl2, 1 CaCl2, 0.33 NaH2PO4, 10 HEPES, 10 glucose, pH was adjusted to 7.4 with NaOH. The pipette solution contained (in mM) 20 KCl, 110 K-aspartate, 1 MgCl2, 10 HEPES, 5 EGTA, 0.1 GTP, 5 Na2-phosphocreatine, and 5 Mg2-ATP, pH was adjusted to 7.2 with KOH. For Ito and IKur recording, BaCl2 (200 μM) and CdCl2 (200 μM) were added to the superfusion to block IK1 and ICa.L. Atropine (1.0 μM) was used to minimize possible IK.ACh contamination during the current recording. For ICa.L recording, K^+ in pipette and Tyrode solution was replaced by CsCl. INa was recorded under conditions of K^+-free and a symmetrical Na^+ (5 mM) in pipette and superfusion solutions as described previously (Li at al., 2002a).
A small aliquot of the solution containing the isolated cells was placed in an open perfusion chamber (1-ml) mounted on the stage of an inverted microscope. […]
The whole-cell patch-clamp technique was used for electrophysiological recording. […] Membrane currents were recorded in voltage-clamp mode using an EPC-9 amplifier and Pulse software (HEKA, Lambrecht, Germany). […] The cell membrane capacitance (pF) was directly measured using the lock-in module of the Pulse software, and used for normalizing the current in individual cells.
Description for Ito: as §1, §2
A small aliquot of the solution containing the isolated cells was placed in an open perfusion chamber (1-ml) mounted on the stage of an inverted microscope. Myocytes were allowed to adhere to the bottom of the chamber for 5-10 min and were the superfused at 2-3 ml/min with Tyrode solution. Only quiescent rod-shaped cells with clear cross-striations were used. The studies were conducted at room temperature (21-22° C.) for current recording or 36° C. for action potential recording.
The whole-cell patch-clamp technique was used for electrophysiological recording. Borosilicate glass electrodes (1.2-mm OD) were pulled with a Brown-Flamming puller (model P-97, Sutter Instrument Co, Novato, Calif., USA) and had tip resistances of 2-3 MΩ when filled with pipette solution. Membrane currents were recorded in voltage-clamp mode using an EPC-9 amplifier and Pulse software (HEKA, Lambrecht, Germany). A 3-M KCl-agar salt bridge was used as reference electrode. The tip potentials were compensated before the pipette touched the cell. After a giga-ohm seal was obtained, the cell membrane was ruptured by gentle suction to establish the whole-cell configuration. The cell membrane capacitance (pF) was directly measured using the lock-in module of the Pulse software, and used for normalizing the current in individual cells.

As for `COc1ccc(-c2cc(=O)c3c(O)cc(O)cc3o2)cc1` [Acacetin, 5,7-dihydroxy-4′-methoxyflavone], the “rate dependence of APD prolongation, in words” value in the series with human atrial myocytes (10 μM, 0.5 Hz vs 2 Hz) is listed as “slight rate-dependent increase; also recorded: slight rate-dependent prolongation”. The “action potential duration (APD50, APD75, APD90), in words” value in the series with human atrial myocytes (5 and 10 μM, 0.5, 1.0, 2.0 Hz, 36° C.) was “significantly prolonged”. Besides, the “resting membrane potential and amplitude of action potential, in words” value in the series on human atrial myocytes (5 or 10 μM, 2 Hz) was “without affecting”. Moreover, the “water solubility, in words” value in series [1] is recorded as “not water soluble”. Moreover, the “inhibition of voltage-dependent IKur (tail and step currents), in words” value was “substantially inhibited” against IKur and “suppressed” against IKur (listed as acacetin). Also, the “effect on IKur in human atrial myocytes, in words” value at IKur (setting [2]) is recorded as “blocking effect”. For the same molecule, the IC50 at IKur (human atrial myocytes, +40 mV, 0.3 to 100 μM, Hill equation fit, read-out: IC50 for inhibiting IKur) is 3.2 µM; with Ito (human atrial myocytes, +40 mV, IKur blocked with 10 μM verapamil, read-out: IC50 for inhibiting Ito), 9.2 µM. The “voltage-dependence of steady-state inactivation and activation of Ito, in words” value is listed as “did not affect” on Ito and “not affected; also recorded: without affecting” on Ito (listed as acacetin). The “inhibition of voltage-dependent Ito, in words” value at Ito (3 and 10 μM, with 10 μM verapamil) was “substantially inhibited; also recorded: reduced”. For the same molecule, on Ito (setting [2]), the “effect on Ito in human atrial myocytes, in words” value is “blocking effect”. The figures for the “effect on INa, in words” value in the series on INa and with INa (listed as acacetin) were “no effect; also recorded: no inhibition” and “no effects”, respectively.

For orientation: IC50 means the concentration at which inhibition is half-maximal.
